In US11066416B2, “Rapafucin derivative compounds and methods of use thereof” (The Johns Hopkins University, priority 2016, dated 2021):

Tests used:
Assay type in all cases: cell-based
293T = assay: Nucleoside uptake assay (uptake) using 3H-Thymidine, 293T; conditions: 293T cells
Procedure: (§1) Nucleoside Uptake Assay (uptake). Nuceloside uptake assays were performed with using 3H-Thymidine as described in Guo et al. (2018) Nat. Chem. 11:254-63. Specific cell lines are indicated in each assay and cultured in complete growth media. Activity is scored according to the IC50 values relative to DMSO control. “Low” indicates an IC50 greater than 600 nM, “Medium” indicates an IC50 between 300 nM and 600 nM “High” indicates an IC50 less than 300 nM. “Rel.Uptake” refers to uptake activity characterization relative to a single concentration assay. “Low” indicates a response greater than 0.6 times the activity relative to DMSO, “Medium” indicates a response between 0.6 and 0.3 times the activity relative to DMSO, “High” indicates a response less than 0.3 times the activity relative to DMSO.

[1] = test system: nucleoside uptake (3H-Thymidine); assay: Rel.Uptake: nucleoside uptake, single concentration assay, cell line as indicated in each table; conditions: response relative to DMSO
Procedure: as §1

[2] = test system: nucleoside uptake (3H-Thymidine); assay: Nucleoside uptake assay (uptake) using 3H-Thymidine, IC50, cell line as indicated in each table (none given in Table 8); conditions: 3H-Thymidine uptake; cell line not given
Procedure: as §1

[3] = IC50 class relative to DMSO control

## COc1ccc(CC[C@H]2OC(=O)[C@@H]3CCCCN3C(=O)C(=O)C(C)(C)COC(=O)C=CCCN(C)C(=O)[C@H](CC(C)C)N(C)C(=O)[C@H]3CCCN3C(=O)[C@H](Cc3ccc(CC(=O)OC(C)(C)C)cc3)NC(=O)C(c3ccccc3)NC(=O)CCC(=O)Nc3cccc2c3)cc1OC (stereo partly shown) [Compound 1081]
293T; [3]
  Uptake, 293T: medium
[1]; 293T
  Rel. Uptake, 293T: medium

## COc1ccc(CC[C@H]2OC(=O)[C@@H]3CCCCN3C(=O)C(=O)C(C)(C)COC(=O)C=CCCN(C)C(=O)[C@H](CC(C)C)N(C)C(=O)[C@H]3CCCN3C(=O)[C@H](Cc3ccccc3)N(C)C(=O)[C@H](CC(=O)OC(C)(C)C)NC(=O)CCC(=O)Nc3cccc2c3)cc1OC [Compound 1088]
293T; [3]
  Uptake, 293T: low
[1]; 293T cells
  Rel. Uptake, 293T: low

## COc1ccc(CC[C@H]2OC(=O)[C@@H]3CCCCN3C(=O)C(=O)C(C)(C)CNC(=O)C=CCCN(C)C(=O)[C@H](CC(C)C)N(C)C(=O)[C@H]3CCCN3C(=O)[C@H](Cc3ccccc3)N(C)C(=O)C(c3ccccc3)NC(=O)CCC(=O)Nc3cccc2c3)cc1OC (stereo partly shown) [Compound 1555]
293T; [3]
  Uptake, 293T: high
[1]; 293T, nucleoside uptake
  Rel. Uptake, 293T: high

## COc1ccc(CC[C@H]2OC(=O)[C@@H]3CCCCN3C(=O)C(=O)C(C)(C)COC(=O)C=CCCN(C)C(=O)[C@@H](c3ccccc3)NC(=O)[C@H](Cc3ccc(OP(C)(C)=O)cc3)NC(=O)[C@H]3CCCN3C(=O)[C@H](CC(C)C)N(C)C(=O)COc3cccc2c3)cc1OC [Compound 1520]
293T; Table 16
  Uptake, 293T: low
[1]; 293T, nucleoside uptake
  Rel. Uptake, 293T: low

## COc1ccc(CC[C@H]2OC(=O)[C@@H]3CCCCN3C(=O)C(=O)C(C)(C)COC(=O)C=CCCN(C)C(=O)[C@H](CC(C)C)N(C)C(=O)[C@H]3CCCN3C(=O)[C@H](Cc3ccc(CNC(=O)CN(C)C)cc3)NC(=O)[C@H](c3ccccc3)NC(=O)CCC(=O)Nc3cccc2c3)cc1OC [Compound 1587]
293T; Table 14
  IC50: > 600 nM
[1]; 293T, nucleoside uptake
  Rel. Uptake, 293T: Low (“Low” indicates a response greater than 0.6 times the activity relative to DMSO)

## CCCCCCNC(=O)Cc1ccc(C[C@@H]2NC(=O)[C@H](c3ccccc3)NC(=O)CCC(=O)Nc3cccc(c3)[C@@H](CCc3ccc(OC)c(OC)c3)OC(=O)[C@@H]3CCCCN3C(=O)C(=O)C(C)(C)COC(=O)C=CCCN(C)C(=O)[C@H](CC(C)C)N(C)C(=O)[C@H]3CCCN3C2=O)cc1 [Compound 1591]
293T; Table 15
  IC50: > 600 nM
[1]; 293T, nucleoside uptake
  Rel. Uptake, 293T: Med

## COc1ccc(CC[C@H]2OC(=O)[C@@H]3CCCCN3C(=O)C(=O)C(C)(C)COC(=O)C=CCCN(C)C(=O)[C@H](CC(C)C)N(C)C(=O)[C@H]3CCCN3C(=O)[C@H](Cc3ccc(O)cc3)NC(=O)C(c3ccccc3)NC(=O)CCC(=O)Nc3cccc2c3)cc1OC (stereo partly shown) [Compound 1522]
293T; [3]
  Uptake, 293T: high
[1]; 293T, nucleoside uptake
  Rel. Uptake, 293T: high

## COc1ccc(CC[C@H]2OC(=O)[C@@H]3CCCCN3C(=O)C(=O)C(C)(C)COC(=O)C=CCCN(C)C(=O)[C@H](CC(C)C)N(C)C(=O)[C@H]3CCCN3C(=O)[C@H]3C[C@@H](NC(=O)OC(C)(C)C)CN3C(=O)C(c3ccccc3)NC(=O)CCC(=O)Nc3cccc2c3)cc1OC (stereo partly shown) [Compound 1087]
293T; [3]
  Uptake, 293T: low
[1]; 293T cells
  Rel. Uptake, 293T: low

## COc1ccc(CC[C@H]2OC(=O)[C@@H]3CCCCN3C(=O)C(=O)C(C)(C)COC(=O)C=CCCN(C)C(=O)[C@H](CC(C)C)N(C)C(=O)[C@H]3CCCN3C(=O)[C@H](Cc3ccc(CNC(=O)Cc4ccccc4)cc3)NC(=O)[C@H](c3ccccc3)NC(=O)CCC(=O)Nc3cccc2c3)cc1OC [Compound 1586]
293T; Table 14
  Uptake, 293T: Med
[1]; 293T, nucleoside uptake
  Rel. Uptake, 293T: Med

## COc1ccc(CC[C@H]2OC(=O)[C@@H]3CCCCN3C(=O)C(=O)C(C)(C)COC(=O)C=CCCN(C)C(=O)[C@H](CC(C)C)N(C)C(=O)[C@H]3CCCN3C(=O)[C@H](Cc3ccc(C(=O)Nc4cccnc4)cc3)NC(=O)[C@H](c3ccccc3)NC(=O)CCC(=O)Nc3cccc2c3)cc1OC [Compound 1562]
293T; Table 15
  Uptake, 293T: low
[1]; 293T, nucleoside uptake
  Rel. Uptake, 293T: low

## COc1ccc(CC[C@H]2OC(=O)[C@@H]3CCCCN3C(=O)C(=O)C(C)(C)COC(=O)/C=C/CCN(C)C(=O)[C@H](C(C)C)N(C)C(=O)[C@@H]3CCCN3C(=O)[C@@H](Cc3ccccc3)N(C)C(=O)[C@H](c3ccccc3)NC(=O)CCC(=O)Nc3cccc2c3)cc1OC [Compound 1610]
[2]
  IC50: 16.5 nM

## COc1ccc(CC[C@H]2OC(=O)[C@@H]3CCCCN3C(=O)C(=O)C(C)(C)COC(=O)C=CCCN(C)C(=O)[C@H](CC(C)C)N(C)C(=O)[C@H]3CCCN3C(=O)[C@H](Cc3ccc(NC(=O)Cc4cccnc4)cc3)NC(=O)[C@H](c3ccccc3)NC(=O)CCC(=O)Nc3cccc2c3)cc1OC [Compound 1589]
293T; Table 14
  IC50: > 600 nM
[1]; 293T, nucleoside uptake
  Rel. Uptake, 293T: Low (“Low” indicates a response greater than 0.6 times the activity relative to DMSO)

## CCCC[C@H]1C(=O)N(C)CCC=CC(=O)OCC(C)(C)C(=O)C(=O)N2CCCC[C@H]2C(=O)O[C@H](CCc2ccc(OC)c(OC)c2)c2cccc(c2)OCC(=O)N[C@@H](C)C(=O)N(C)[C@H](Cc2ccccc2)C(=O)N2CCC[C@H]2C(=O)N1C [Compound 1621]
[2]
  IC50: 9.76 nM

## COc1ccc(CC[C@H]2OC(=O)[C@@H]3CCCCN3C(=O)C(=O)C(C)(C)COC(=O)C=CCCN(C)C(=O)[C@H](CC(C)C)N(C)C(=O)[C@H]3CCCN3C(=O)[C@H](CC(=O)OC(C)(C)C)N(C)C(=O)C(c3ccccc3)NC(=O)CCC(=O)Nc3cccc2c3)cc1OC (stereo partly shown) [Compound 1066]
293T; [3]
  Uptake, 293T: high
[1]; 293T
  Rel. Uptake, 293T: high

## CC[C@H](C)[C@H]1C(=O)N(C)CC/C=C/C(=O)OCC(C)(C)C(=O)C(=O)N2CCCC[C@H]2C(=O)O[C@H](CCc2ccc(OC)c(OC)c2)c2cccc(c2)OCC(=O)N[C@@H](C)C(=O)N(C)[C@H](Cc2ccccc2)C(=O)N2CCC[C@H]2C(=O)N1C [Compound 1617]
[2]
  IC50: 34.1 nM

## CC[C@H](C)[C@H]1C(=O)N(C)CC/C=C/C(=O)OCC(C)(C)C(=O)C(=O)N2CCCC[C@H]2C(=O)O[C@H](CCc2ccc(OC)c(OC)c2)c2cccc(c2)NC(=O)CCC(=O)N[C@@H](C)C(=O)N(C)[C@H](Cc2ccccc2)C(=O)N2CCC[C@H]2C(=O)N1C [Compound 1614]
[2]
  IC50: 34.4 nM

## CCCC[C@H]1C(=O)N(C)CC/C=C/C(=O)OCC(C)(C)C(=O)C(=O)N2CCCC[C@H]2C(=O)O[C@H](CCc2ccc(OC)c(OC)c2)c2cccc(c2)OCC(=O)NCC(=O)N(C)[C@H](Cc2ccccc2)C(=O)N2CCC[C@H]2C(=O)N1C [Compound 1620]
[2]
  IC50: 13.9 nM

## COc1ccc(CC[C@H]2OC(=O)[C@@H]3CCCCN3C(=O)C(=O)C(C)(C)COC(=O)C=CCCN(C)C(=O)[C@H](CC(C)C)N(C)C(=O)[C@@H]3CCCN3C(=O)[C@@H](Cc3ccccc3)N(C)C(=O)CNC(=O)COc3cccc2c3)cc1OC [Compound 1622]
[2]
  IC50: 28.5 nM

## COc1ccc(CC[C@H]2OC(=O)[C@@H]3CCCCN3C(=O)C(=O)C(C)(C)COC(=O)C=CCCN(C)C(=O)C3(CCCCC3)NC(=O)[C@@H]3CCCN3C(=O)[C@@H](Cc3ccccc3)N(C)C(=O)CNC(=O)COc3cccc2c3)cc1OC [Compound 1627]
[2]
  IC50: 262 nM

## COc1ccc(CC[C@H]2OC(=O)[C@@H]3CCCCN3C(=O)C(=O)C(C)(C)COC(=O)C=CCCN(C)C(=O)[C@@H](C)N(C)C(=O)[C@@H]3CCCN3C(=O)[C@@H](Cc3ccccc3)N(C)C(=O)CNC(=O)COc3cccc2c3)cc1OC [Compound 1626]
[2]
  IC50: 155 nM

## COc1ccc(CC[C@H]2OC(=O)[C@@H]3CCCCN3C(=O)C(=O)C(C)(C)COC(=O)C=CCCN(C)C(=O)[C@H](CC(C)C)N(C)C(=O)[C@@H]3CCCN3C(=O)[C@@H](Cc3ccccc3)N(C)C(=O)[C@H](C)NC(=O)COc3cccc2c3)cc1OC [Compound 1623]
[2]
  IC50: 10.5 nM

## CCC[C@@H]1NC(=O)CCC(=O)Nc2cccc(c2)[C@@H](CCc2ccc(OC)c(OC)c2)OC(=O)[C@@H]2CCCCN2C(=O)C(=O)C(C)(C)COC(=O)/C=C/CCN(C)C(=O)[C@H]([C@@H](C)CC)N(C)C(=O)[C@@H]2CCCN2C(=O)[C@@H](Cc2ccccc2)N(C)C1=O [Compound 1615]
[2]
  IC50: 12.2 nM

## CCC[C@H]1C(=O)N(C)CCC=CC(=O)OCC(C)(C)C(=O)C(=O)N2CCCC[C@H]2C(=O)O[C@H](CCc2ccc(OC)c(OC)c2)c2cccc(c2)OCC(=O)NCC(=O)N(C)[C@H](Cc2ccccc2)C(=O)N2CCC[C@H]2C(=O)N1C [Compound 1625]
[2]
  IC50: 42.3 nM

## CCC[C@@H]1NC(=O)CCC(=O)Nc2cccc(c2)[C@@H](CCc2ccc(OC)c(OC)c2)OC(=O)[C@@H]2CCCCN2C(=O)C(=O)C(C)(C)COC(=O)/C=C/CCN(C)C(=O)[C@H](C(C)C)N(C)C(=O)[C@@H]2CCCN2C(=O)[C@@H](Cc2ccccc2)N(C)C1=O [Compound 1607]
[2]
  IC50: 18 nM

## COc1ccc(CC[C@H]2OC(=O)[C@@H]3CCCCN3C(=O)C(=O)C(C)(C)COC(=O)/C=C/CCN(C)C(=O)[C@H](C(C)C)N(C)C(=O)[C@@H]3CCCN3C(=O)[C@@H](Cc3ccccc3)N(C)C(=O)CNC(=O)COc3cccc2c3)cc1OC [Compound 1611]
[2]
  IC50: 48.9 nM

## COc1ccc(CC[C@H]2OC(=O)[C@@H]3CCCCN3C(=O)C(=O)C(C)(C)COC(=O)/C=C/CCN(C)C(=O)[C@H](C(C)C)N(C)C(=O)[C@@H]3CCCN3C(=O)[C@@H](Cc3ccccc3)N(C)C(=O)[C@H](Cc3ccccc3)NC(=O)CCC(=O)Nc3cccc2c3)cc1OC [Compound 1609]
[2]
  IC50: 55 nM

## COCC[C@@H]1NC(=O)COc2cccc(c2)[C@@H](CCc2ccc(OC)c(OC)c2)OC(=O)[C@@H]2CCCCN2C(=O)C(=O)C(C)(C)COC(=O)/C=C/CCN(C)C(=O)[C@H](C(C)C)N(C)C(=O)[C@@H]2CCCN2C(=O)[C@@H](Cc2ccccc2)N(C)C1=O [Compound 1613]
[2]
  IC50: 59.5 nM

## COc1ccc(CC[C@H]2OC(=O)[C@@H]3CCCCN3C(=O)C(=O)C(C)(C)COC(=O)/C=C/CCN(C)C(=O)[C@H](C)N(C)C(=O)[C@@H]3CCCN3C(=O)[C@@H](Cc3ccccc3)N(C)C(=O)[C@H](C)NC(=O)COc3cccc2c3)cc1OC [Compound 1619]
[2]
  IC50: 66.7 nM
